Measured values: patent US20240058336A1 (IMPACT BIOMEDICINES, INC., priority 2020, published 2024)
Counter-ions that a name gives are not always drawn.

How the values were obtained:
nausea and vomiting = assay: Ondansetron prophylaxis in a previous Phase 1 fedratinib study; type: in vivo, human; settings: prophylaxis before fedratinib
From the text: A subsequent oral dose(s) of ondansetron may be given, as necessary, in accordance with the United States Package Insert (USPI).

[1] = Fedratinib pharmacokinetics in healthy subjects; type: in vivo, human
[2] = Tolerability of single fedratinib doses in healthy subjects; type: in vivo, human
[3] = tested on: CYP3A4, CYP2C19 and flavin-containing monooxygenases (FMOs); assay: In vitro evaluations of fedratinib metabolism; type: in vitro ADME
FLT3 kinase = molecular target: T1, FLT3 kinase (Homo sapiens, UniProt P36888); settings: cited from earlier work
T1 sequence (P36888 27-993): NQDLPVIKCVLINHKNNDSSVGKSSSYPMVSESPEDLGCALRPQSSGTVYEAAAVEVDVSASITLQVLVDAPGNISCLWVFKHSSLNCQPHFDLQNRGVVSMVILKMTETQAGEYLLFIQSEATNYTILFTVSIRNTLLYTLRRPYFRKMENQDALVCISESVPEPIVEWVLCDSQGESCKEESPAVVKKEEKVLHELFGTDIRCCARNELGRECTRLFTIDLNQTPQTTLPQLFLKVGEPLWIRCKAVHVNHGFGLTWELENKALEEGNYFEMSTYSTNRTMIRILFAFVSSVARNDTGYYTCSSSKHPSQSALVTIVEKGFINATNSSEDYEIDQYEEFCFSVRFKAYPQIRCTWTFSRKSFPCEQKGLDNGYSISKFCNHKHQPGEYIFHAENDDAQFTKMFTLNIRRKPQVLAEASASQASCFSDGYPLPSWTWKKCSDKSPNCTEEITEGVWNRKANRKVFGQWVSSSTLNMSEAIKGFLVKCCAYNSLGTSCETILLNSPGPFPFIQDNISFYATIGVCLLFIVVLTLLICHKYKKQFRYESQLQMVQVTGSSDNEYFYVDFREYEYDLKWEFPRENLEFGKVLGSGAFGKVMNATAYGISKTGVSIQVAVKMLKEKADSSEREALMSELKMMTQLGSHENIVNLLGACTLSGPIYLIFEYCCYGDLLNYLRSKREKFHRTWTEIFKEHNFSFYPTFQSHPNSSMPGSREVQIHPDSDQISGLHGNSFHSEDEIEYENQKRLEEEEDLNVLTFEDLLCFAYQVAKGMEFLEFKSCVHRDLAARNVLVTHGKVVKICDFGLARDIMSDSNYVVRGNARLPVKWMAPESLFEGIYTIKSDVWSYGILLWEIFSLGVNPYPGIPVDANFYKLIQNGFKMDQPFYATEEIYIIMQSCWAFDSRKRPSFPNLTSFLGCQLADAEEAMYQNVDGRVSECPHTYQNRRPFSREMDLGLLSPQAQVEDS

[4] = tested on: patient-derived cell lines expressing JAK2V617F and cells engineered to express WT JAK2 or JAK2V617F; settings: cited from earlier work
JAK2V617F-driven MPNs = settings: mouse models; cited from earlier work

| Compound | nausea and vomiting (nausea and vomiting) | fraction of total fedratinib AUC captured ([1]; by 168 hours postdose, healthy subjects) | PK linearity ([1]; clinically relevant dose range, single-dose PK predicts multiple-dose PK) | half-life ([1]; human, in vivo, healthy subjects, read-out: effective half-life (converted)) | single dose tolerated [2] | metabolizing enzymes [3] | inhibition of FLT3 kinase (FLT3 kinase) | STAT phosphorylation [4] | apoptosis [4] | cell proliferation [4] | STAT phosphorylation (JAK2V617F-driven MPNs) | disease-associated symptoms (leukopenia, anemia, splenomegaly, fibrosis) (JAK2V617F-driven MPNs) | survival (JAK2V617F-driven MPNs) |
| --- | --- | --- | --- | --- | --- | --- | --- | --- | --- | --- | --- | --- | --- |
| Cc1nccn1CC1CCc2c(c3ccccc3n2C)C1=O (stereo not shown) [Ondansetron] | reduce nausea and vomiting | – | – | – | – | – | – | – | – | – | – | – | – |
| Cc1cnc(Nc2ccc(OCCN3CCCC3)cc2)nc1Nc1cccc(S(=O)(=O)NC(C)(C)C)c1 [fedratinib, N-tert-butyl-3-[(5-methyl-2-{[4-(2-pyrrolidin-1-ylethoxy)phenyl]amino}pyrimidin-4-yl)amino]benzenesulfonamide dihydrochloride monohydrate] | – | approximately 90% | linear | ~30 h | up to 680 mg | metabolized by multiple CYPs, with the predominant contribution from CYP3A4, and with lesser contributions from CYP2C19 and flavin-containing monooxygenases (FMOs) | inhibits | reduced phosphorylation of STATS/STATS | increased apoptosis | inhibited cell proliferation | blocked phosphorylation of STATS/5 | improved disease-associated symptoms | increased survival |
